Entries after “also recorded” stand apart in the source; their conditions may differ.
Assays:
[1] = tested on: SH-SY5Y (neuroblastoma cell line); experiment: RNAseq global gene expression in differentiated SH-SY5Y cells; type: cell-based, human
Experimental: To determine the cellular response to SCA-744 (Cat. No. 55523-250 MG Sigma-Aldrich), the global changes in gene expression upon treatment of human in vitro cultured cells, SH-SY5Y (neuroblastoma cell line: SH-SY5Y-ATCC-CRL-2266) were analysed by RNAseq analysis. SH-SY5Y were cells differentiated with retinoic acid and Phorbol-12-Myristate-13-Acetate (Presgraves et al. Experimental Neurology 2004, 190(1), pp. 157-170). Cell cultures were treated for 24 hours with 500 μM of SCA-744 or vehicle (DPBS). Total RNA was isolated to prepare libraries using the Lexogen SENSE mRNA kit and sequenced using a HiSeq2500 (Illumina) running in 50 bp single-read modes using sequencing chemistry v4. Differentially expressed genes (DEGs) were identified by applying the statistical tests of DESeq (Anders & Huber, Genome biology 2010, 11(10), p. R106), and edgeR (Robinson et al. Bioinformatics 2009, 26(1), pp. 139-140.) packages. The comparison was made with Homo sapiens identifiers.

LDL-R = LDL-R immunofluorescence microscopy in HeLa cells; type: cell-based, human; conditions: 50 and 500 μM, 48 hours
Experimental: In another set of experiments, HeLa cells were treated the same way (50 and 500 μM of SCA-744 for 48 hours). Cells were fixed with 4% paraformaldehyde solution for 10 min at RT and permeabilized with 0.1% Triton X-100 for 15 min at RT and analysed by immunofluorescence microscopy using the same anti-human LDLR antibody employed for the immunoblotting. This detection method was more sensitive, and indicated the presence of LDL-R even in control cells.

C57BL/6J mice = experiment: LPS-induced acute lung inflammation model: lung histopathology; type: in vivo; conditions: SCA-744 60 mg/kg i.p.
Experimental: Acute lung inflammation was induced by intratracheal administration of 100 μg LPS (Escherichia coli O111:B4; Sigma Aldrich, St. Louis, MO, USA) dissolved in 60 μl sterile phosphate buffered saline (PBS) under ketamine (120 mg/kg ip.; Calypsol, Gedeon Richter Plc., Budapest, Hungary) and xylazine (6 mg/kg ip.; Sedaxylan, Eurovet Animal Health B.V., Bladel, Netherlands) anaesthesia. 24 h after administration, respiratory function parameters were assessed, and lung samples were harvested for histopathological evaluation.
SCA-744 (60 mg/kg) and its vehicle were injected intraperitoneally (i.p.), 24 h, 12 h, 20 min before and 12 h after intratracheal administration of LPS. […] 24 h and 20 min before LPS treatment. Respiratory function measurement was performed 24 h after LPS administration
Excised lung tissue samples were formalin-fixed (6%) and embedded in paraffin, 5 μm sections cut and stained with haematoxylin-eosin for histological analysis. Assessment of airway inflammation was performed in a blind manner in order to evaluate perivascular/peribronchial edema, neutrophil, macrophage and lymphocyte inflammatory cell infiltration as well as goblet cell metaplasia on a semiquantitative scale ranging from 0 to 3 in 2 fields of vision from three depths of lung tissue from each animal.

mice = experiment: CFA-induced chronic arthritis model: joint histology; type: in vivo; conditions: 60 mg/kg i.p. daily, 21-day period
Experimental: The chronic arthritis was induced by intraplantar (i.pl.) injection of 20 μl complete Freund's adjuvant (CFA, heat-killed Mycobacterium suspended in paraffin oil, 1 mg/ml; Sigma Aldrich, St. Louis, MO, USA) into the right hind paw and 20 μl subcutaneously (s.c.) into the tail root. An additional s.c. injection (20 μl) was administered on the following day (day 1) into the tail root in order to potentiate the systemic effects mimicking the human condition.
The excised tibiotarsal joints are fixed in 4% buffer formaldehye, decalcified and paraffin-embedded, sliced into sections (5 μm) and stained with hematoxylin and esosin. Arthritic changes are scored by a blinded observer using a scale of 0 to 3 according to 1) mononuclear cells infiltration into areolar tissue, 2) synovial hyperplasia, 3) cartilage destruction, 4) bone erosion.

[2] = Cytotoxicity, CellTiter-Glo cell viability; type: cell-based; conditions: human, HEK 293 cells (printed as HEK 293 neuroblastoma cell lines), 72 h treatment, read-out: EC50 cytotoxicity (cell viability, ATP)
Experimental: FIG. 19.: In-vitro assessment of SCA-744 (A) and SCA-754 (B) cytotoxicity. Experiments were performed using HEK 293 […] cell lines. The effect of SCA-744 and SCA-754 on cell viability was assessed using a standard ATP, CellTiter-Glo® Luminescent Cell Viability Assay following 72 hours treatment.
In vitro assessment of cytotoxicity of SCA-744 and SCA-754 in mammalian cells. 72 h following SCA-744 and SCA-754-treatment, cell viability was assessed using a standard ATP method, CellTiter-Glo® Luminescent Cell Viability Assay.

neuroblastoma cells = experiment: Protection from MPP+ induced oxidative stress, CellTiter-Glo viability; type: cell-based
Experimental: Several in-vivo and in-vitro studies find that MPP+ exerts oxidative stress on cells^22. MPP+×toxicity is based on its uptake into dopaminergic neurons. MPP+ accumulate into the mitochondria, inhibiting the complex-I leading to ATP depletion, increased reactive oxygen species (ROS) production, and apoptotic cell death^23. 12 h following MPP+ treatment and SCA-744 and CAL-X incubation, cell viability was assessed using a standard ATP method, CellTiter-Glo® Luminescent Cell Viability Assay.

[3] = 500 μM, 24 hours, differentiated SH-SY5Y

O=S(=O)(O)c1cc2c(O)c(c1)Cc1cc(S(=O)(=O)O)cc(c1O)Cc1cc(S(=O)(=O)O)cc(c1O)Cc1cc(S(=O)(=O)O)cc(c1O)C2 [SCA-744, 4-sulfocalix[4]arene]
genes for LDLR, INSIG1 and DHCR24/Seladin-1 [1]: found to be modulated
genes involved in inflammation, anti-oxidative, anti-ageing response and lipid metabolism (RNAseq) [1, 3]: differentially regulated
mRNA expression of anti-oxidative genes CHAC1, NQO1, SLC7A11 (RNASeq) [1, 3]: significant up-regulation
mRNA expression of key genes involved in pro-inflammatory response [1, 3]: down regulates key genes involved in pro-inflammatory response
level of LDL-R (immunofluorescence, semi-quantitative) (LDL-R): significantly increased the level of LDL-R in a concentration dependent manner
pathological changes in perivascular oedema and perivascular/peribronchial infiltration by neutrophils and macrophages (C57BL/6J mice): prevented or greatly reduced the pathological changes
semiquantitative pathology scores (oedema, granulocytes, macrophages, composite; scale 0 to 3) (C57BL/6J mice; dexamethasone 5 mg/kg ip.): not statistically significantly different from untreated controls
synovial hyperplasia score (scale 0 to 3) (mice): significantly lower
EC50 at 72 h [2]: 2000 µM
protection from MPP+ induced apoptosis / damage (neuroblastoma cells; 0.1-1000 μM, 12 h): protects against oxidative stress from MPP+ induced damage; also recorded: protected neuroblastoma cells from MPP+ induced apoptosis
concentration for MPP+ protection (neuroblastoma cells; 12 h following MPP+ treatment, CellTiter-Glo): 1 µM

From US12714682B2, “Calixarene compounds and uses thereof” (UNIVERSITÄT WIEN, priority 2019, dated 2026)
